Entries after “also recorded” stand apart in the source; their conditions may differ. Where two headings read alike, the source gives them in different places.

Series [1] can be described thus: Operative mortality following intratumoral injection. It counts as in vivo, rat (male CDF, Fischer 344). The conditions noted are these: following intratumoral BCNU solution injection; 4/72. The method, then: Rats were anesthetized with ether and pentobarbital sodium (25-30 mg/kg) and placed into the stereotactic frame. The clips and bone wax were carefully removed. The BCNU solution was delivered directly into the tumor through a
Hamilton microsyringe set to the same coordinates and using the same technique as used in the initial tumor implantation. As before, the operative field was cleaned with povidone-iodine solution and the scalp was closed with clips.
The following paradigm was used to assess therapeutic efficacy of the intra-tumorally delivered BCNU antineoplastic solution. All animals received tumor implantation on day zero (0). Controls received no treatment, vehicle controls received a single intratumoral injection of absolute ethanol on day 7. One experimental group received a single injection of intratumoral BCN dissolved in absolute ethanol at a dose of 5 mg/kg body weight on day 7.

The conditions of series [2]: cited from earlier work.
The next series is described as follows: Lethal dose of BCNU. The series is classed as in vivo. The conditions noted are these: intraperitoneal BCNU in rats. The method, then: All intratumoral injections used this 66.7 mg/ml formulation directly. This concentration is about three to four logs greater than the tumoricidal dose 50%. […] This cannot be extrapolated to man, however, because of differences in cross-species toxicity.

The test system of a further series is tumor cells. Briefly: Tumoricidal dose 50% (TD50) comparison. The conditions noted are these: 66.7 mg/ml BCNU in absolute ethanol. The text has this: Operationally, where cytotoxic, the antineoplastic agent is preferably dissolved in the organic solvent to a concentration such that when a therapeutically effective volume of the antineoplastic solution of the invention is delivered into a neoplastic mass, there results a dose of the agent solute in said mass of at least two logs greater than its tumoricidal dose 50% (TD50), that is, the concentration of agent in said mass that kills 50% of the tumor cells. This ensures that a supralethal concentration of the agent is delivered throughout at least a substantial volume of the tumor mass when the resulting antineoplastic solution is injected directly into the substance of the tumor. As the organic vehicle permeates the tumor mass it transports a therapeutically effective, neoplastically lethal concentration of the cytotoxic agent solute therewith. In this way high levels of the cytotoxic antineoplastic agent can be delivered discretely and with relative safety to the tumor mass. In another sense the water miscible organic vehicle component of the solution can be considered to increase the solubility of the agent within the tumor mass, thereby allowing therapeutically effective toxic levels of the antineoplastic agent to invest the tumor. […]

Series [3] deals with T9 gliosarcoma. Briefly: Survival of rats bearing intracerebral T9 gliosarcoma after intratumoral BCNU solution. The series is classed as in vivo, rat (male CDF, Fischer 344). To be noted: for % ILS (percent increase in life span): vs control.
Series [4] is described as follows: Stability of BCNU in ethanol, organic vehicles and aqueous solution. It counts as physicochemical. To be noted: ethanol vehicle of the exemplary solution.
The conditions of series [5]: cited from earlier work. The source holds these as a separate data set.
The conditions of series [6]: cited from earlier work. This is another data set of the same source.
For series [7] the following is noted: rat, in vivo; cited from earlier work.
For series [8], the system named is T9 gliosarcoma. To be noted: cited from earlier work.
The subject of a further series is ependymoblastoma. The conditions noted are these: intratumoral injection(s), up to ten; suspended in 0.4% aqueous methylcellulose in most suitable formulation; cited from earlier work.
For series [9] the following is noted: delivered systemically; cited from earlier work.
[10] abbreviates: Group 4: IT BCNU 5 mg/kg day 7 + IP BCNU 5 mg/kg day 12, n=14.

In [1], `O=NN(CCCl)C(=O)NCCCl` [BCNU, 1,3-bis(2-chloroethyl)-1-nitrosourea] had an Operative mortality of 5.5%. Besides, the “half life in serum” value in series [2] was “about 15 minutes”. The “dose of 5 mg/kg as percentage of the LD10” value in “Lethal dose of BCNU” is given as about 40%. The “concentration of the formulation above the tumoricidal dose 50%” value in the series on tumor cells is “about three to four”. Further, the “% ILS (percent increase in life span)” value in the series with T9 gliosarcoma [3] (Group 3: single IT BCNU 5 mg/kg in absolute ethanol, day 7, n=42) was 322%; with T9 gliosarcoma [3] (setting [10]) it was 472%; in the series with T9 gliosarcoma [3] (Groups 3 + 4 combined, n=56), 433%. Besides, the “% Cures” value worked out at 43% with T9 gliosarcoma [3] (Group 3: single IT BCNU 5 mg/kg, day 7, n=42); 36% in the series with T9 gliosarcoma [3] (setting [10]); 41% in the series with T9 gliosarcoma [3] (Groups 3 + 4 combined, n=56). Besides, the “MDS (median day of survival following tumor implantation)” value with T9 gliosarcoma [3] (Group 3: single intratumoral (IT) injection of BCNU in absolute ethanol, 5 mg/kg, day 7, n=42) stood at 76 days; with T9 gliosarcoma [3] (Group 4: IT BCNU in absolute ethanol 5 mg/kg day 7 + IP BCNU 5 mg/kg in 7.5% aqueous ethanol day 12, n=14), 103 days; with T9 gliosarcoma [3] (Groups 3 + 4 combined, n=56) it was 96 days. Besides, in the series with T9 gliosarcoma [3] (Groups 3 + 4, 600-700 days), the “animals living a normal lifespan” value is on record as “nineteen”. In addition, in the series with T9 gliosarcoma [3] (Groups 3 + 4, days 121, 136, 307, 384), the “animals sacrificed healthy, no observable viable T9 gliosarcoma” value is on record as “four”. In the series on T9 gliosarcoma [3] (IT + IP vs IT only), the “therapeutic benefit of adding intraperitoneal BCNU to intratumoral BCNU solution” value is “did not statistically enhance the therapeutic benefit”. In the series on T9 gliosarcoma [3] (intratumoral BCNU solution treated group, 600-700 days), the “animals which live a normal life span” value is recorded as 41%. Besides, the “animals that die, phase one” value in the series on T9 gliosarcoma [3] (intratumoral BCNU solution treated group, days 18-24) was found to be 23%. For the same compound, in the series on T9 gliosarcoma [3] (intratumoral BCNU solution treated group, days 25 to 166), the “animals that die, second phase” value amounted to 30%. Also, the “animals that die, third phase” value in the series with T9 gliosarcoma [3] (intratumoral BCNU solution treated group, days 251-325) is given as 5%. The solubility in ethanol result in series [4] is given as “soluble to highly cytotoxic levels in ethanol”. Moreover, in series [4], the “stability and bioavailability in ethanol” value is “remains stable and bioavailable therein”. Moreover, the “stability in aqueous solution” value in [5] (aqueous solution) is “not very stable in aqueous solution”. Besides, in [5] (ethanol), the stability in ethanol result is “stable in ethanol”. Also, in [5] (organic water miscible solvent vehicles, compared with aqueous solution), the “stability in organic water miscible solvent vehicles” value is given as “far more stable in the organic water miscible solvent vehicles”. For the same compound, in [6], the water solubility entry is “inherently low water solubility”. The “lethal dose 10%” value in series [7] is given as 13.3 mg/kg. In addition, the ILS in the series with T9 gliosarcoma [8] (BCNU 5 mg/kg, delivered intra-arterially) was 57%; in the series on T9 gliosarcoma [8] (BCNU 13.3 mg/kg, delivered intravenously or intra-arterially) it was 180%. Further, the “improvement in life span” value in the series on T9 gliosarcoma [8] (BCNU 5 mg/kg, delivered systemically) is given as “no improvement in life span”. In addition, the “cures in animals bearing this tumor, prior to this experiment” value in the series on T9 gliosarcoma [8] (any mode of delivery previously known) was “neither BCNU nor any other antineoplastic agent has ever produced cures in animals bearing this tumor; also recorded: neither BCNU nor any other single antineoplastic agent has ever been known to produce a single cure in this tumor model”.
Turning to `O=NN(CCCl)C(=O)NC1CCCCC1` [CCNU, 1-(2-chloroethyl)-3-cyclohexyl-1-nitrosourea], in the series with ependymoblastoma, the “increase in life span” value is “only modest increases in life span”. Also, the water solubility result in series [6] was “water insoluble”.
As to `C[C@H]1CC[C@H](NC(=O)N(CCCl)N=O)CC1` [Me-CCNU, 1-(2-chloroethyl)-3-(trans-4-methylcyclohexyl)-1-nitrosourea], the “increase in life span” value with ependymoblastoma is on record as “only modest increases in life span”. For the same compound, in [6], the water solubility result is “water insoluble”.
Regarding `COc1cccc2c1C(=O)c1c(O)c3c(c(O)c1C2=O)C[C@@](O)(C(=O)CO)C[C@@H]3O[C@H]1C[C@H](N)[C@H](O)[C@H](C)O1` [adriamycin], the organ specific toxicity entry in series [9] is “cardiotoxicity”.
On to bleomycin, for which the organ specific toxicity entry in series [9] is “lung toxicity”.
